# Measurements: patent US10760110B2, “Antibiotic testing and screening system” (priority 2017, dated 2020)
# Where two headings read alike, the source gives them in different places.
# Experiments:
# [1] = system: K. pneumoniae NVT1001 strains with QnrB, QnrS or AAC(6′)-Ib-cr plasmids; test: Etest MIC of quinolones, GyrA/ParC mutations, ΔramR and/or QnrB, QnrS or AAC(6′)-Ib-cr (Table 12); type: cell-based; conditions: Klebsiella pneumoniae
# Procedure: DNA fragments of the resistance genes along with their flanking regions were amplified from clinical plasmids via PCR with specific primer pairs. The resulting PCR fragments were digested and then cloned into the plasmid pACYC177 or pACYC184. The resulting plasmids were then transformed into K. pneumoniae strain NVT1001 via electroporation. The recombinant bacteria were plated onto LB agar plates containing kanamycin (50 mg/L) or chloramphenicol (50 mg/L), and the presence of the cloned gene was confirmed via PCR and DNA sequencing.
# (§1) The MICs of antibiotics were determined using the Etest (Biodisk AB, Sweden) according to the manufacturer's instructions. The MICs from the Etest, which fall between standard two-fold dilutions, were rounded up to the next highest two-fold value. The MICs of ceftazidime and cefotaxime against K. pneumoniae NVT1001 harbouring the pACYC177 plasmid with blaOXA-48 were further determined using a broth microdilution test according to the recommendations of the CLSI,^25 and the results were interpreted according to the breakpoints established by the CLSI in 2017.^25 Meanwhile, due to the lack of CLSI breakpoints in 2016 and 2017, the results for cephalothin were interpreted according to the breakpoints established by the CLSI in 2015,^26 and the results for moxifloxacin were interpreted according to the breakpoints established by the EUCAST in 2017.^27
# [2] = system: K. pneumoniae NVT1001 gyrA/parC and gyrA/parC/ramR mutants and revertants; test: Etest MIC of quinolones, gyrA/parC and gyrA/parC/ramR mutants and their revertants (Table 11); type: cell-based; conditions: Klebsiella pneumoniae
# From the text: The allelic-exchange method was used to restore the wild-type gene in the K. pneumoniae NVT1001 mutants with constructed chromosome-mediated resistance mechanisms, as described by Tsai et al.^19 Briefly, a DNA fragment of the entire wild-type gene sequence along with flanking regions was amplified from K. pneumoniae NVT1001 using PCR with specific primers. The resulting PCR fragment was digested and then cloned into pUT-KB. For homologous recombination, this plasmid was transformed into E. coli S17-1 λpir^23 via electroporation and mobilized into the K. pneumoniae NVT1001 mutant via conjugation. […] After incubation in 20 mL BHI broth for 6 hours at 37° C. in the absence of kanamycin, the fully grown cultures were spread onto LB agar plates supplemented with 10% sucrose. After the double crossover occurred, the sucrose-resistant and kanamycin-susceptible colonies were selected, and the restoration of the wild-type gene was confirmed via DNA sequencing.
# as §1
# [3] = AAC(6′)-Ib-cr on pACYC177, S83I mutant
# [4] = AAC(6′)-Ib-cr on pACYC177, S83I/D87N/S80I mutant
# [5] = AAC(6′)-Ib-cr on pACYC177, S83I/S80I mutant
# [6] = AAC(6′)-Ib-cr on pACYC177, WT (NVT1001), read-out: MIC
# [7] = AAC(6′)-Ib-cr on pACYC177, ΔramR mutant
# [8] = AAC(6′)-Ib-cr on pACYC177, ΔramR/S83I mutant
# [9] = AAC(6′)-Ib-cr on pACYC177, ΔramR/S83I/D87N/S80I mutant
# [10] = AAC(6′)-Ib-cr on pACYC177, ΔramR/S83I/S80I mutant
# [11] = QnrB on pACYC177, S83I/D87N/S80I mutant
# [12] = QnrB on pACYC177, S83I/S80I mutant
# [13] = QnrB on pACYC177, WT (NVT1001), read-out: MIC
# [14] = QnrB on pACYC177, ΔramR/S83I mutant
# [15] = QnrB on pACYC177, ΔramR/S83I/D87N/S80I mutant
# [16] = QnrB on pACYC177, ΔramR/S83I/S80I mutant
# [17] = QnrS on pACYC177, S83I/D87N/S80I mutant
# [18] = QnrS on pACYC177, S83I/S80I mutant
# [19] = QnrS on pACYC177, WT (NVT1001), read-out: MIC
# [20] = QnrS on pACYC177, ΔramR/S83I mutant
# [21] = QnrS on pACYC177, ΔramR/S83I/D87N/S80I mutant
# [22] = QnrS on pACYC177, ΔramR/S83I/S80I mutant
# [23] = no supplemental plasmid, S83I mutant
# [24] = no supplemental plasmid, S83I/D87N/S80I mutant
# [25] = no supplemental plasmid, S83I/S80I mutant
# [26] = no supplemental plasmid, WT (NVT1001), read-out: MIC
# [27] = no supplemental plasmid, ΔramR mutant
# [28] = no supplemental plasmid, ΔramR/S83I mutant
# [29] = no supplemental plasmid, ΔramR/S83I/D87N/S80I mutant
# [30] = no supplemental plasmid, ΔramR/S83I/S80I mutant
# [31] = S83F/D87N/S80I::F83S/N87D/I80S revertant, read-out: MIC
# [32] = S83F/D87N/S80I::I80S revertant, read-out: MIC
# [33] = S83F/D87N/S80I::N87D revertant, read-out: MIC
# [34] = S83F/D87N/S80I::N87D/I80S revertant, read-out: MIC
# [35] = S83I/D87N/S80I::I80S revertant, read-out: MIC
# [36] = S83I/D87N/S80I::I83S/N87D/I80S revertant, read-out: MIC
# [37] = S83I/D87N/S80I::N87D revertant, read-out: MIC
# [38] = S83I/D87N/S80I::N87D/I80S revertant, read-out: MIC
# [39] = S83L/D87N/S80I::I80S revertant, read-out: MIC
# [40] = S83L/D87N/S80I::L83S/N87D/I80S revertant, read-out: MIC
# [41] = S83L/D87N/S80I::N87D revertant, read-out: MIC
# [42] = S83L/D87N/S80I::N87D/I80S revertant, read-out: MIC
# [43] = S83Y/D87N/S80I::I80S revertant, read-out: MIC
# [44] = S83Y/D87N/S80I::N87D revertant, read-out: MIC
# [45] = S83Y/D87N/S80I::N87D/I80S revertant, read-out: MIC
# [46] = S83Y/D87N/S80I::Y83S/N87D/I80S revertant, read-out: MIC
# [47] = ΔramR/S83I/D87N/S80I:: ramR/I83S revertant
# [48] = ΔramR/S83I/D87N/S80I:: ramR/I83S/I80S revertant
# [49] = ΔramR/S83I/D87N/S80I:: ramR/I83S/N87D revertant
# [50] = ΔramR/S83I/D87N/S80I::I83S/N87D/I80S revertant
# [51] = ΔramR/S83I/D87N/S80I::N87D revertant
# [52] = ΔramR/S83I/D87N/S80I::N87D/I80S revertant
# [53] = ΔramR/S83I/D87N/S80I::ramR/I83S/N87D/I80S
smiles,measurement,setting,value
"CCn1cc(C(=O)O)c(=O)c2cc(F)c(N3CCNCC3)cc21 [Norfloxacin, norfloxacin]",MIC,[1]; [3],8 µg/mL
same,MIC,[1]; [4],> 256 µg/mL
same,MIC,[1]; [5],128 µg/mL
same,MIC,[1]; [6],1 µg/mL
same,MIC,[1]; [7],8 µg/mL
same,MIC,[1]; [8],128 µg/mL
same,MIC,[1]; [9],> 256 µg/mL
same,MIC,[1]; [10],> 256 µg/mL
same,MIC,"[1]; QnrB on pACYC177, S83I mutant",8 µg/mL
same,MIC,[1]; [11],> 256 µg/mL
same,MIC,[1]; [12],> 256 µg/mL
same,MIC,[1]; [13],2 µg/mL
same,MIC,"[1]; QnrB on pACYC177, ΔramR mutant",16 µg/mL
same,MIC,[1]; [14],64 µg/mL
same,MIC,[1]; [15],> 256 µg/mL
same,MIC,[1]; [16],> 256 µg/mL
same,MIC,"[1]; QnrS on pACYC177, S83I mutant",8 µg/mL
same,MIC,[1]; [17],128 µg/mL
same,MIC,[1]; [18],64 µg/mL
same,MIC,[1]; [19],2 µg/mL
same,MIC,"[1]; QnrS on pACYC177, ΔramR mutant",32 µg/mL
same,MIC,[1]; [20],64 µg/mL
same,MIC,[1]; [21],> 256 µg/mL
same,MIC,[1]; [22],> 256 µg/mL
same,MIC,[1]; [23],2 µg/mL
same,MIC,[1]; [24],64 µg/mL
same,MIC,[1]; [25],16 µg/mL
same,MIC,[1]; [26],0.25 µg/mL
same,MIC,[1]; [27],2 µg/mL
same,MIC,[1]; [28],8 µg/mL
same,MIC,[1]; [29],> 256 µg/mL
same,MIC,[1]; [30],128 µg/mL
same,MIC,[2]; S83F/D87N/S80I mutant,32 µg/mL
same,MIC,[2]; [31],0.25 µg/mL
same,MIC,[2]; [32],2 µg/mL
same,MIC,[2]; [33],4 µg/mL
same,MIC,[2]; [34],2 µg/mL
same,MIC,[2]; S83I/D87N/S80I mutant,64 µg/mL
same,MIC,[2]; [35],2 µg/mL
same,MIC,[2]; [36],0.25 µg/mL
same,MIC,[2]; [37],16 µg/mL
same,MIC,[2]; [38],2 µg/mL
same,MIC,[2]; S83L/D87N/S80I mutant,64 µg/mL
same,MIC,[2]; [39],2 µg/mL
same,MIC,[2]; [40],0.25 µg/mL
same,MIC,[2]; [41],8 µg/mL
same,MIC,[2]; [42],2 µg/mL
same,MIC,[2]; S83Y/D87N/S80I mutant,32 µg/mL
same,MIC,[2]; [43],2 µg/mL
same,MIC,[2]; [44],4 µg/mL
same,MIC,[2]; [45],2 µg/mL
same,MIC,[2]; [46],0.25 µg/mL
same,MIC,[2]; ΔramR/S83I/D87N/S80I mutant,> 256 µg/mL
same,MIC,[2]; [47],2 µg/mL
same,MIC,[2]; [48],1 µg/mL
same,MIC,[2]; [49],0.25 µg/mL
same,MIC,[2]; [50],2 µg/mL
same,MIC,[2]; [51],128 µg/mL
same,MIC,[2]; [52],8 µg/mL
same,MIC,[2]; [53],0.25 µg/mL
"CC1COc2c(N3CCN(C)CC3)c(F)cc3c(=O)c(C(=O)O)cn1c23 (stereo not drawn) [Ofloxacin, ofloxacin]",MIC,[1]; [3],4 µg/mL
same,MIC,[1]; [4],32 µg/mL
same,MIC,[1]; [5],8 µg/mL
same,MIC,[1]; [6],0.25 µg/mL
same,MIC,[1]; [7],2 µg/mL
same,MIC,[1]; [8],> 32 µg/mL
same,MIC,[1]; [9],> 32 µg/mL
same,MIC,[1]; [10],> 32 µg/mL
same,MIC,"[1]; QnrB on pACYC177, S83I mutant",8 µg/mL
same,MIC,[1]; [11],> 32 µg/mL
same,MIC,[1]; [12],> 32 µg/mL
same,MIC,[1]; [13],4 µg/mL
same,MIC,"[1]; QnrB on pACYC177, ΔramR mutant",32 µg/mL
same,MIC,[1]; [14],> 32 µg/mL
same,MIC,[1]; [15],> 32 µg/mL
same,MIC,[1]; [16],> 32 µg/mL
same,MIC,"[1]; QnrS on pACYC177, S83I mutant",8 µg/mL
same,MIC,[1]; [17],> 32 µg/mL
same,MIC,[1]; [18],> 32 µg/mL
same,MIC,[1]; [19],4 µg/mL
same,MIC,"[1]; QnrS on pACYC177, ΔramR mutant",16 µg/mL
same,MIC,[1]; [20],> 32 µg/mL
same,MIC,[1]; [21],> 32 µg/mL
same,MIC,[1]; [22],> 32 µg/mL
same,MIC,[1]; [23],2 µg/mL
same,MIC,[1]; [24],32 µg/mL
same,MIC,[1]; [25],4 µg/mL
same,MIC,[1]; [26],0.25 µg/mL
same,MIC,[1]; [27],2 µg/mL
same,MIC,[1]; [28],> 32 µg/mL
same,MIC,[1]; [29],> 32 µg/mL
same,MIC,[1]; [30],> 32 µg/mL
same,MIC,[2]; S83F/D87N/S80I mutant,16 µg/mL
same,MIC,[2]; [31],0.25 µg/mL
same,MIC,[2]; [32],2 µg/mL
same,MIC,[2]; [33],4 µg/mL
same,MIC,[2]; [34],2 µg/mL
same,MIC,[2]; S83I/D87N/S80I mutant,32 µg/mL
same,MIC,[2]; [35],2 µg/mL
same,MIC,[2]; [36],0.25 µg/mL
same,MIC,[2]; [37],8 µg/mL
same,MIC,[2]; [38],2 µg/mL
same,MIC,[2]; S83L/D87N/S80I mutant,32 µg/mL
same,MIC,[2]; [39],2 µg/mL
same,MIC,[2]; [40],0.25 µg/mL
same,MIC,[2]; [41],4 µg/mL
same,MIC,[2]; [42],2 µg/mL
same,MIC,[2]; S83Y/D87N/S80I mutant,16 µg/mL
same,MIC,[2]; [43],2 µg/mL
same,MIC,[2]; [44],4 µg/mL
same,MIC,[2]; [45],2 µg/mL
same,MIC,[2]; [46],0.25 µg/mL
same,MIC,[2]; ΔramR/S83I/D87N/S80I mutant,> 32 µg/mL
same,MIC,[2]; [47],1 µg/mL
same,MIC,[2]; [48],1 µg/mL
same,MIC,[2]; [49],0.25 µg/mL
same,MIC,[2]; [50],2 µg/mL
same,MIC,[2]; [51],> 32 µg/mL
same,MIC,[2]; [52],> 32 µg/mL
same,MIC,[2]; [53],0.25 µg/mL
